Laboratory results published in publication PMC9931771, “Surufatinib plus toripalimab in patients with advanced solid tumors: a single-arm, open-label, phase 1 trial” (Journal of Cancer Research and Clinical Oncology, 2022).
Like-named read-outs stand apart in the source and are kept apart here.

How the values were obtained:
[1] = Phase 1 trial: pharmacokinetics of surufatinib and toripalimab (non-compartmental analysis); format: in vivo, human; settings: for Surufatinib accumulation ratio of AUC0-τ: Cycle 2 Day 1 compared to Cycle 1 Day 1; for AUC / Cmax / Tmax / Vd/F / half-life: human, in vivo, oral; for AUC: read-out: Surufatinib AUC0-τ, geometric mean (CV%); for Cmax: read-out: Surufatinib Cmax, geometric mean (CV%); for Tmax: read-out: Surufatinib Tmax, median; for Vd/F: read-out: Surufatinib Vd/F, geometric mean (CV%); for half-life: read-out: Surufatinib t1/2, median (converted)
Description: Blood samples were collected for PK evaluation at multiple time points on Cycle 1 Day 1, Cycle 2 Day 1, and Cycle 3 Day 1 for surufatinib and toripalimab, respectively.
DLT events were based on the DLT evaluable population, including patients who received at least 1 cycle of treatment and completed all safety assessments within the DLT assessment window or discontinued early due to DLT in the dose-escalation stage. All safety analyses, progression-free survival (PFS), and overall survival (OS) statistics were based on the safety population, including patients who received at least 1 dose of any study drug. All efficacy endpoints, excluding PFS and OS, were analyzed based on the efficacy evaluable population, including all patients who received at least 1 dose of any study drug and had tumor assessment at baseline and post drug administration prior to initiation of new anti-cancer therapies. The PK analysis was based on the PK population, which included all patients who received at least one dose of the study drug, had at least one PK sample collected and analyzed, and had no protocol deviation that might affect the PK data.
Two-sided 95% confidence interval (CI) of ORR and DCR were computed using the Exact (Clopper–Pearson) method. For time-to-event variables [PFS, OS, DoR (duration of response) and TTR (time to response)], median event time as well as the corresponding 95% CI were estimated using Kaplan–Meier method. All statistical analyses were performed using SAS 9.4 software. Adverse events (AEs) were graded by NCI CTCAE (Common Terminology Criteria for Adverse Events) v4.03, and coded using the Medical Dictionary for Regulatory Activities (MedDRA) v23.1. Treatment-related AEs (TRAEs) referred to AEs related to surufatinib or toripalimab, which were judged by the investigators. PK parameters were calculated by non-compartmental analysis using Phoenix WinNonlin v8.0.

[2] = system: advanced well-differentiated pancreatic NET; design: method as in Xu et al. [2020a], [b]; settings: phase 3 trial, ref Xu et al. [2020a], [b]; cited from earlier work
[3] = system: advanced well-differentiated extrapancreatic NET; design: method as in Xu et al. [2020a], [b]; settings: phase 3 trial, ref Xu et al. [2020a], [b]; cited from earlier work
[4] = system: tumor-associated macrophages (TAMs); design: method as in Zhou et al. [2017]; settings: preclinical studies; ref Zhou et al. [2017]; cited from earlier work
[5] = surufatinib 200 mg + toripalimab 240 mg, C1D1, N 6
[6] = surufatinib 200 mg + toripalimab 240 mg, C1D1, footnote 1 (N 4)
[7] = surufatinib 200 mg + toripalimab 240 mg, C2D1, N 6
[8] = surufatinib 200 mg + toripalimab 240 mg, C3D1, N 3
[9] = surufatinib 200 mg + toripalimab 240 mg, C3D1, footnote 3 (N 2)
[10] = surufatinib 250 mg + toripalimab 240 mg, C1D1, N 12
[11] = surufatinib 250 mg + toripalimab 240 mg, C2D1, N 11
[12] = surufatinib 250 mg + toripalimab 240 mg, C3D1, N 9
[13] = surufatinib 250 mg + toripalimab 240 mg, C3D1, footnote 3 (N 8)
[14] = surufatinib 300 mg + toripalimab 240 mg, C1D1, N 12
[15] = surufatinib 300 mg + toripalimab 240 mg, C1D1, footnote 1 (N 10)
[16] = surufatinib 300 mg + toripalimab 240 mg, C2D1, N 10
[17] = surufatinib 300 mg + toripalimab 240 mg, C3D1, N 10

Cc1cc2cc(Oc3ccnc(Nc4cccc(CS(=O)(=O)NCCN(C)C)c4)n3)ccc2[nH]1 [surufatinib]
Surufatinib accumulation ratio of AUC0-τ ([1]; 200 mg QD): 1.8
Surufatinib accumulation ratio of AUC0-τ ([1]; 250 mg QD): 2.0
Surufatinib accumulation ratio of AUC0-τ ([1]; 300 mg QD): 2.1
AUC ([1]; surufatinib 200 mg + toripalimab 240 mg, C1D1, N 4): 1840 ng·h/mL
Cmax [1, 5]: 277 ng/mL
Tmax [1, 5]: 1.98 h
Vd/F [1, 6]: 926 L
half-life [1, 6]: 4.49 h
AUC ([1]; surufatinib 200 mg + toripalimab 240 mg, C2D1, N 3): 3010 ng·h/mL
Cmax [1, 7]: 268 ng/mL
Tmax [1, 7]: 2.97 h
half-life ([1]; surufatinib 200 mg + toripalimab 240 mg, C2D1, footnote 4 (N 3)): 13.1 h
AUC ([1]; surufatinib 200 mg + toripalimab 240 mg, C3D1, N 2): 2300 ng·h/mL
Cmax [1, 8]: 239 ng/mL
Tmax [1, 8]: 1.98 h
Vd/F [1, 9]: 1080 L
half-life [1, 9]: 10.1 h
AUC [1, 10]: 1840 ng·h/mL
Cmax [1, 10]: 289 ng/mL
Tmax [1, 10]: 1.6 h
Vd/F [1, 10]: 1660 L
half-life [1, 10]: 11.1 h
AUC [1, 11]: 3610 ng·h/mL
Cmax [1, 11]: 407 ng/mL
Tmax [1, 11]: 2 h
half-life [1, 11]: 11.9 h
AUC ([1]; surufatinib 250 mg + toripalimab 240 mg, C3D1, N 8): 2400 ng·h/mL
Cmax [1, 12]: 310 ng/mL
Tmax [1, 12]: 1.93 h
Vd/F [1, 13]: 2540 L
half-life [1, 13]: 15.6 h
AUC ([1]; surufatinib 300 mg + toripalimab 240 mg, C1D1, N 10): 1880 ng·h/mL
Cmax [1, 14]: 228 ng/mL
Tmax [1, 14]: 2 h
Vd/F [1, 15]: 1620 L
half-life [1, 15]: 8.12 h
AUC ([1]; surufatinib 300 mg + toripalimab 240 mg, C2D1, N 9): 3670 ng·h/mL
Cmax [1, 16]: 281 ng/mL
Tmax [1, 16]: 2.97 h
half-life ([1]; surufatinib 300 mg + toripalimab 240 mg, C2D1, footnote 4 (N 8)): 14.4 h
AUC [1, 17]: 3500 ng·h/mL
Cmax [1, 17]: 361 ng/mL
Tmax [1, 17]: 2 h
Vd/F [1, 17]: 1510 L
half-life [1, 17]: 12.2 h
Surufatinib CL/F, geometric mean (CV%) [1, 6]: 89.5 (23.9) ^1 L/h
Surufatinib CL/F, geometric mean (CV%) [1, 9]: 87.0 (24.3) ^3 L/h
Surufatinib CL/F, geometric mean (CV%) [1, 10]: 110 (34.6) L/h
Surufatinib CL/F, geometric mean (CV%) [1, 13]: 104 (45.0)^3 L/h
Surufatinib CL/F, geometric mean (CV%) [1, 15]: 134 (30.7) ^1 L/h
Surufatinib CL/F, geometric mean (CV%) [1, 17]: 84.3 (34.9) L/h
DCR [2]: 80.8%
ORR [2]: 19.2%
DCR [3]: 86.5%
ORR [3]: 10.3%
Effect on M1 TAMs [4]: increased
Effect on M2 tumor-associated macrophages (TAMs) [4]: decreased
